Assay results taken from patent publication US12171230B2, “Herbicidal compositions” (Bayer Aktiengesellschaft, priority 2018, dated 2024).
Values joined by “and” are separate entries in the source; they are usually repeats but may differ in a detail not shown here. Identical values can stand only once. Like-named read-outs stand apart in the source and are kept apart here.

How the values were obtained:
Format in all cases: in vivo
Eleusine indica [1] = assay: Post-emergence herbicidal action against Eleusine indica; conditions: (Z3) post-emergence, g of a.i./ha: 270, 90, 15, 5, 5 + 270, 15 + 90
Excerpt: (§1) The following abbreviations are used in the description and the tables that follow: • g of a.i./ha=grams of active substance (active ingredient) (=100% active compound) per hectare; • The sum total of the effects of the individual applications is reported under E^A; • expected values according to Colby are each reported under E^C.
(§2) The rating period is reported in days after application (DAT).

Bidens pilosa = assay: Post-emergence herbicidal action against Bidens pilosa; conditions: for Herbicidal action: 21 DAT
How it was run: (§3)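 Weeds sown in sandy loam pots in greenhouse; treated post-emergence at three-leaf stage (three weeks after sowing) by spraying formulated compositions at various dosages in 300 to 800 l/ha water. Visual scoring versus untreated controls after about 3 to 4 weeks; synergism judged against Colby expected values.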

Digitaria sanguinalis = assay: Post-emergence herbicidal action against Digitaria sanguinalis; conditions: for Herbicidal action: 21 DAT
How it was run: as §3

Echinochloa crus-galli = assay: Post-emergence herbicidal action against Echinochloa crus-galli
Experimental: (§4) When the observed efficacies exceed the formal sum total of the values of the tests with individual applications, they also exceed the expected value according to Colby, which is calculated using the formula below and is likewise regarded as an indication of synergism (cf. S. R. Colby; in Weeds 15 (1967) p. 20 to 22): E^C=A+B−([…])
(§5) Here: • A=efficacy of the active compound (A) in % at an application rate of a g a.i./ha; • B=efficacy of the active compound (B) in % at an application rate of b g a.i./ha; • E^C=expected value of the effect of the combination (A)+(B) in % at the combined application rate a+b g a.i./ha.
(§6) Seeds or rhizome pieces of mono- and dicotyledonous weeds are placed in sandy loam in pots, covered with soil and grown in a greenhouse under good growth conditions (temperature, air humidity, water supply). Three weeks after sowing, the test plants were treated at the three-leaf stage with the compositions according to the invention. The compositions according to the invention formulated as spray powders or as emulsion concentrates were sprayed onto the green plant parts in various dosages with an application rate of 300 to 800 l/ha of water (equivalent). After the test plants have been left to stand in the greenhouse under optimal growth conditions for about 3 to 4 weeks, the action of the preparations is scored visually in comparison to untreated controls. The compositions according to the invention also have good post-emergence herbicidal activity against a broad spectrum of economically important gramineous and broadleaf weeds.

Polygonum convolvulus [2] = assay: Post-emergence herbicidal action against Polygonum convolvulus; conditions: 21 DAT
Eleusine indica [3] = assay: Post-emergence herbicidal action against Eleusine indica; conditions: 21 DAT
Sorghum halepense = assay: Post-emergence herbicidal action against Sorghum halepense; conditions: for Herbicidal action: 21 DAT
Experimental: as §4, §5, §6

Kochia scoparia = assay: Post-emergence herbicidal action against Kochia scoparia; conditions: 21 DAT
Amaranthus palmeri = assay: Post-emergence herbicidal action against Amaranthus palmeri; conditions: for pest or weed control at 5 g/ha: 5 g of a.i./ha; for pest or weed control at 15 g/ha: 15 g of a.i./ha
How it was run: as §3

Brachiaria platyphylla = assay: Post-emergence herbicidal action against Brachiaria platyphylla; conditions: for Herbicidal action: 21 DAT
Experimental: as §4, §5, §6

Setaria viridis = assay: Post-emergence herbicidal action against Setaria viridis; conditions: for Herbicidal action: 21 DAT
Experimental: as §4, §5, §6

Polygonum convolvulus [4] = assay: Post-emergence herbicidal action against Polygonum convolvulus; conditions: g of a.i./ha: 90, 30, 45, 45 + 90, 45 + 30
Excerpt: as §1, §2

Ranunculus repens = assay: Post-emergence herbicidal action against Ranunculus repens; conditions: 105 g of a.i./ha
Experimental: as §4, §5
as §6, with “After the test plants have been left to stand in the greenhouse under optimal growth conditions for about 3 to 4 weeks, the action of the preparations is scored visually in comparison to untreated controls.” left out

Panicum maximum = assay: Post-emergence herbicidal action against Panicum maximum; conditions: 75 g of a.i./ha
Experimental: as §4, §5, §6

Ephilobium hirsutum = assay: Post-emergence herbicidal action against Ephilobium hirsutum; conditions: 105 g of a.i./ha
Experimental: as §4, §5
as §6, with “The compositions according to the invention also have good post-emergence herbicidal activity against a broad spectrum of economically important gramineous and broadleaf weeds.” left out

Bellis perenne = assay: Post-emergence herbicidal action against Bellis perenne; conditions: 105 g of a.i./ha
Experimental: as §4, §5
as §6, with “The compositions according to the invention also have good post-emergence herbicidal activity against a broad spectrum of economically important gramineous and broadleaf weeds.” left out

Lamium purpureum = assay: Post-emergence herbicidal action against Lamium purpureum; conditions: 105 g of a.i./ha, post-emergence
How it was run: as §3

Viola arvensis = assay: Post-emergence herbicidal action against Viola arvensis; conditions: 105 g of a.i./ha
Experimental: as §4, §5
as §6, with “After the test plants have been left to stand in the greenhouse under optimal growth conditions for about 3 to 4 weeks, the action of the preparations is scored visually in comparison to untreated controls.” left out

Ipomoea hederacea = assay: Post-emergence herbicidal action against Ipomoea hederacea
Experimental: as §4, §5, §6

Abutilon theophrasti = assay: Post-emergence herbicidal action against Abutilon theophrasti; conditions: 75 g of a.i./ha
Poa annua = assay: Post-emergence herbicidal action against Poa annua; conditions: 28 DAT
How it was run: as §3

Bromus sterilis = assay: Post-emergence herbicidal action against Bromus sterilis; conditions: 28 DAT; 150 g a.i./ha
Centaurea cyano = assay: Post-emergence herbicidal action against Centaurea cyano; conditions: 150 g a.i./ha
How it was run: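 Formulations (spray powders or emulsion concentrates) applied at various doses onto foliage using 300 to 800 l/ha water; plants treated at three-leaf stage, three weeks post-sowing in sandy loam under greenhouse conditions.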

Pharbitis purpurea = assay: Post-emergence herbicidal action against Pharbitis purpurea; conditions: 21 DAT; 50 g a.i./ha
Experimental: as §4, §5, §6

Lolium rigidum = assay: Post-emergence herbicidal action against Lolium rigidum; conditions: 28 DAT; resistant biotype; 50 g a.i./ha
Malva pusilia = assay: Post-emergence herbicidal action against Malva pusilia; conditions: 42 DAT; 720 g a.i./ha
Lysimachia nummularia = assay: Post-emergence herbicidal action against Lysimachia nummularia; conditions: 45 DAT; 720 g a.i./ha
Ipomoea ssp. = assay: Post-emergence herbicidal action against Ipomoea ssp.; conditions: 45 DAT
[5] = 15 g of a.i./ha, post-emergence, block with (B1.14) Tembotrione
[6] = 45 g of a.i./ha, post-emergence, block with (B1.14) Tembotrione
[7] = Amaranthus palmeri, post-emergence, 504 h, post-emergence, block with (B1.14) Tembotrione, read-out: Herbicidal action 21 DAT [%] against Amaranthus palmeri
[8] = Amaranthus palmeri, post-emergence, 504 h, read-out: Herbicidal action 21 DAT [%] against Amaranthus palmeri

COC(=O)[C@H]1C[C@@H](NC(=O)C2(OC)CC(c3cc(Cl)cc(Cl)c3)=NO2)CO1 (relative stereo) [Compound A1, methyl rel-(2R,4R)-4-[[3-(3,5-dichlorophenyl)-5-methoxy-4H-isoxazole-5-carbonyl]amino]tetrahydrofuran-2-carboxylate]
Herbicidal action 21 DAT against Eleusine indica (Eleusine indica [1]; 5 g of a.i./ha): 45%
Herbicidal action 21 DAT against Eleusine indica (Eleusine indica [1]; 15 g of a.i./ha): 70%
Herbicidal action (Bidens pilosa; 15 g a.i./ha): 35%
Herbicidal action 21 DAT against Bidens pilosa (Bidens pilosa; post-emergence, g of a.i./ha: 90, 30, 15, 15 + 90, 15 + 30): 35%
Herbicidal action (Digitaria sanguinalis; 1.7 g a.i./ha): 20%
Herbicidal action 21 DAT against Echinochloa crus-galli (Echinochloa crus-galli; (Z3) post-emergence, g of a.i./ha: 270, 30, 5, 5 + 270, 5 + 30): 10%
Herbicidal action (Polygonum convolvulus [2]; 5 g a.i./ha): 85%
Herbicidal action (Polygonum convolvulus [2]; 45 g a.i./ha): 85%
Herbicidal action (Eleusine indica [3]; 1.7 g a.i./ha): 20%
Herbicidal action (Sorghum halepense; 1.7 g a.i./ha): 10%
Herbicidal action (Sorghum halepense; 15 g a.i./ha): 35%
Herbicidal action (Kochia scoparia; 5 g a.i./ha): 20%
Herbicidal action (Kochia scoparia; 15 g a.i./ha): 45%
Herbicidal action (Amaranthus palmeri; 21 DAT, (res.), 5 g a.i./ha): 10%
Herbicidal action (Amaranthus palmeri; 21 DAT, (res.), 15 g a.i./ha): 10%
Herbicidal action (Amaranthus palmeri; 21 DAT, (res.), 45 g a.i./ha): 40%
Herbicidal action (Brachiaria platyphylla; 1.7 g a.i./ha): 50%
Herbicidal action (Setaria viridis; 1.7 g a.i./ha): 15%
Herbicidal action 21 DAT against Polygonum convolvulus (Polygonum convolvulus [4]): 85%

CS(=O)(=O)c1ccc(C(=O)C2C(=O)CCCC2=O)c([N+](=O)[O-])c1 [(B1.7) Mesotrione, mesotrione, reference compound]
Herbicidal action 43 DAT [%] against Ranunculus repens (Ranunculus repens): 0%
Herbicidal action 21 DAT [%] against Bidens pilosa (Bidens pilosa; 5 g of a.i./ha, post-emergence, block with (B1.7) Mesotrione): 0%
Herbicidal action 21 DAT [%] against Bidens pilosa (Bidens pilosa; 45 g of a.i./ha, post-emergence, block with (B1.7) Mesotrione): 25%
Herbicidal action 28 DAT [%] against Panicum maximum (Panicum maximum): 0%
Herbicidal action 43 DAT [%] against Ephilobium hirsutum (Ephilobium hirsutum): 0%
Herbicidal action 43 DAT [%] against Bellis perenne (Bellis perenne): 0%
Herbicidal action 32 DAT [%] against Lamium purpureum (Lamium purpureum): 0%
Herbicidal action 43 DAT [%] against Viola arvensis (Viola arvensis): 0%
pest or weed control at 5 g/ha (Amaranthus palmeri; Amaranthus palmeri, post-emergence, 504 h, post-emergence, block with (B1.7) Mesotrione, read-out: Herbicidal action 21 DAT [%] against Amaranthus palmeri): 0%

CS(=O)(=O)c1ccc(C(=O)C2C(=O)CCCC2=O)c(Cl)c1COCC(F)(F)F [(B1.14) Tembotrione, tembotrione, reference compound]
Herbicidal action 21 DAT [%] against Bidens pilosa (Bidens pilosa; 5 g of a.i./ha, post-emergence, block with (B1.14) Tembotrione): 10%
Herbicidal action 21 DAT [%] against Bidens pilosa (Bidens pilosa; [5]): 25%
Herbicidal action 21 DAT [%] against Bidens pilosa (Bidens pilosa; [6]): 25%
Herbicidal action 37 DAT [%] against Ipomoea hederacea (Ipomoea hederacea; 37.5 g of a.i./ha, post-emergence): 0%
Herbicidal action 21 DAT [%] against Sorghum halepense (Sorghum halepense; 5 g of a.i./ha, post-emergence): 30%
Herbicidal action 21 DAT [%] against Sorghum halepense (Sorghum halepense; 15 g of a.i./ha, post-emergence): 50%
pest or weed control at 5 g/ha (Amaranthus palmeri; [7]): 10%
pest or weed control at 15 g/ha (Amaranthus palmeri; [7]): 20%
Herbicidal action 21 DAT [%] against Brachiaria platyphylla (Brachiaria platyphylla; [5]): 50%
Herbicidal action 21 DAT [%] against Brachiaria platyphylla (Brachiaria platyphylla; [6]): 50%
Herbicidal action 21 DAT [%] against Setaria viridis (Setaria viridis; 5 g of a.i./ha, post-emergence): 10%

CCS(=O)(=O)c1cccnc1S(=O)(=O)NC(=O)Nc1nc(OC)cc(OC)n1 [(B2.63) Rimsulfuron]
Herbicidal action 37 DAT against Ipomoea hederacea (Ipomoea hederacea; 35 g of a.i./ha): 0%

CS(=O)(=O)c1cc(C(F)(F)F)ccc1C(=O)c1cnoc1C1CC1 [(B4.18) Isoxaflutole]
Herbicidal action 21 DAT [%] against Bidens pilosa (Bidens pilosa; 5 g of a.i./ha): 20%
Herbicidal action 21 DAT [%] against Bidens pilosa (Bidens pilosa; 45 g of a.i./ha): 60%
Herbicidal action 21 DAT [%] against Digitaria sanguinalis (Digitaria sanguinalis; 15 g of a.i./ha): 10%
Herbicidal action 21 DAT [%] against Digitaria sanguinalis (Digitaria sanguinalis; 45 g of a.i./ha): 25%
Herbicidal action 37 DAT [%] against Abutilon theophrasti (Abutilon theophrasti): 58%
Herbicidal action 21 DAT [%] against Sorghum halepense (Sorghum halepense; 45 g of a.i./ha): 60%
pest or weed control at 5 g/ha (Amaranthus palmeri; [8]): 10%
pest or weed control at 15 g/ha (Amaranthus palmeri; [8]): 10%
pest or weed control at 45 g/ha (Amaranthus palmeri; Amaranthus palmeri, post-emergence, 504 h, 45 g of a.i./ha, read-out: Herbicidal action 21 DAT [%] against Amaranthus palmeri): 20%
Herbicidal action 21 DAT [%] against Brachiaria platyphylla (Brachiaria platyphylla; 15 g of a.i./ha): 20%
Herbicidal action 21 DAT [%] against Brachiaria platyphylla (Brachiaria platyphylla; 45 g of a.i./ha): 30%

CP(=O)(O)CCC(N)C(=O)O (stereo not shown) [(B7.4) Glufosinate]
Herbicidal action (Poa annua; 50 g a.i./ha): 20%
Herbicidal action (Poa annua; 150 g a.i./ha): 30%
Herbicidal action (Bidens pilosa; 50 g a.i./ha): 30%
Herbicidal action (Bidens pilosa; 150 g a.i./ha): 75%
Herbicidal action (Bidens pilosa; 450 g a.i./ha): 75% and 90%
Herbicidal action (Digitaria sanguinalis; 450 g a.i./ha): 85%
Herbicidal action (Bromus sterilis): 10%
Herbicidal action (Echinochloa crus-galli; 21 DAT, 150 g a.i./ha): 65%
Herbicidal action (Polygonum convolvulus [2]; 50 g a.i./ha): 10%
Herbicidal action (Polygonum convolvulus [2]; 150 g a.i./ha): 20%
Herbicidal action (Eleusine indica [3]; 50 g a.i./ha): 15%
Herbicidal action (Eleusine indica [3]; 150 g a.i./ha): 35% and 40%
Herbicidal action (Eleusine indica [3]; 450 g a.i./ha): 60%
Herbicidal action (Sorghum halepense; 50 g a.i./ha): 20%
Herbicidal action (Sorghum halepense; 450 g a.i./ha): 5%
Herbicidal action (Centaurea cyano; 14 DAT): 60%
Herbicidal action (Centaurea cyano; 28 DAT): 30%
Herbicidal action (Kochia scoparia; 50 g a.i./ha): 20%
Herbicidal action (Kochia scoparia; 450 g a.i./ha): 80%
Herbicidal action (Pharbitis purpurea): 20%
Herbicidal action (Amaranthus palmeri; 21 DAT, 50 g a.i./ha): 50%
Herbicidal action (Amaranthus palmeri; 21 DAT, (res.), 50 g a.i./ha): 35%
Herbicidal action (Amaranthus palmeri; 21 DAT, (res.), 150 g a.i./ha): 70%
Herbicidal action (Brachiaria platyphylla; 150 g a.i./ha): 70%
Herbicidal action (Setaria viridis; 50 g a.i./ha): 40% and 20%
Herbicidal action (Lolium rigidum): 10%

O=C(O)CNCP(=O)(O)O [(B7.5) Glyphosate (CAS 39600-42-5)]
Herbicidal action (Malva pusilia): 0%
Herbicidal action (Amaranthus palmeri; 16 DAT, 1440 g a.i./ha): 2%
Herbicidal action (Lysimachia nummularia): 7%
Herbicidal action (Ipomoea ssp.; 720 g a.i./ha): 0%
Herbicidal action (Ipomoea ssp.; 1440 g a.i./ha): 0%
